Source: patent publication US5409947A, “Cycloheptimidazole derivatives, method of manufacturing the same and therapeutic agents containing these compounds” (Kotobuki Seiyaku Co., Ltd., priority 1992, dated 1995)
Structures can show the parent of a compound that is named as a salt.

Each compound was assayed against T1, angiotensin II receptor (Oryctolagus cuniculus, UniProt P34976) (assay: Angiotensin II receptor antagonistic activity: inhibition of angiotensin II-induced contraction of isolated rabbit thoracic aorta). Details: isolated rabbit thoracic aorta contracted by angiotensin II; from dose-response curve (Schild).
T1 construct: Rabbit aorta thoracic is isolated; from tissue; host or cells: isolated rabbit thoracic aorta
T1 sequence (P34976 1-359): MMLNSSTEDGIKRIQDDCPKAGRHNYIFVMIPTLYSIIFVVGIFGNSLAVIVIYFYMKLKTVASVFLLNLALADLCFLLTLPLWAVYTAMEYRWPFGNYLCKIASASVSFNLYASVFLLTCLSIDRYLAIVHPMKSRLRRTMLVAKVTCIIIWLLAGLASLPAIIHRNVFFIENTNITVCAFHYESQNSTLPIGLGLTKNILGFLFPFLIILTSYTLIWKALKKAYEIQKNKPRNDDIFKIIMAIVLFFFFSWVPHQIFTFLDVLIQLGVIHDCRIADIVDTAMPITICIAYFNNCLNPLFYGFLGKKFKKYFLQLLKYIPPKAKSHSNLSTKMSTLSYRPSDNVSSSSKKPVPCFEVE
Format: cell-based
From the text: Angiotensin II receptor antagonistic activity experiments are carded out according to P. C. Wong et al. (Hypertension. 15, 823 (1990)).
Rabbit aorta thoracic is isolated, contracted by angiotensin II. The inhibition of contraction by the compound (1) is expressed as pA2 from dose-response curve (Schild, Brit. J. Pharmacol. 14, 48 (1959)).

| pA2 | SMILES |
| --- | --- |
| 7.95 | Cc1nc2ccccc(=O)c2n1Cc1ccc(-c2ccccc2-c2nn[nH]n2)cc1 [Compound 1, 5-[2-(4-(2-Methyl-8-oxo-1(8H)-cycloheptimidazolyl)methylbiphenylyl)]tetrazole] |

Same assay, conditions: isolated rabbit thoracic aorta contracted by angiotensin II; from dose-response curve (Schild); read-out: pA2 (converted)

| Kb | SMILES |
| --- | --- |
| 0.316 nM | CCCCc1nc2c(n1Cc1ccc(-c3ccccc3-c3nn[nH]n3)cc1)C(=O)CCCC2 [18 - K salt] |
| 0.851 nM | CC(C)Cc1nc2c(n1Cc1ccc(-c3ccccc3-c3nn[nH]n3)cc1)C(=O)CCCC2 [Compound 25] |
| 5.01 nM | Cc1nc2c(n1Cc1ccc(-c3ccccc3-c3nn[nH]n3)cc1)C(=O)CCCC2 [Compound 15, 5-[2-(4-(2-Methyl-8-oxo-5,6,7,8-tetrahydro-1-cycloheptimidazolyl)methylbiphenylyl)]tetrazole] |
| 0.126 nM | CCCc1nc2c(n1Cc1ccc(-c3ccccc3-c3nnn[nH]3)cc1)C(=O)CCCC2 [Compound 17, 5-[2-(4-(2-Propyl-8-oxo-5,6,7,8-tetrahydro-1-cycloheptimidazolyl)methylbiphenylyl)]tetrazole] |
| 0.501 nM | CCCCc1nc2ccccc(=O)c2n1Cc1ccc(-c2ccccc2-c2nn[nH]n2)cc1 [Compound 4, 5-[2-(4-(2-Butyl-8-oxo-1(8H )-cycloheptimidazolyl)methylbiphenylyl)]tetrazole] |
| 1 nM | CCc1nc2c(n1Cc1ccc(-c3ccccc3-c3nn[nH]n3)cc1)C(=O)CCCC2 [Compound 16, 5-[2-(4-(2-Ethyl-8-oxo-5,6,7,8-tetrahydro-1-cycloheptimidazolyl)methylbiphenylyl)]tetrazole] |
| 63.1 nM | CCCCc1nc2c(n1Cc1ccc(-c3ccccc3-c3nn[nH]n3)cc1)CCCCC2=O [Compound 20, 5-[2-(4-(2-Butyl-4-oxo-5,6,7,8-tetrahydro-1-cycloheptimidazolyl)methylbiphenylyl)]tetrazole] |
| 63.1 nM | CCCCc1nc2c(n1Cc1ccc(-c3ccccc3-c3nn[nH]n3)cc1)CCCCC2O (centres unmarked) [Compound 27, 5-[2-(4-(2-Butyl-4-hydroxy-1,4,5,6,7,8-hexahydro-1-cycloheptimidazolyl)methylbiphenylyl)]tetrazole] |
| 1.78 nM | CC(C)c1nc2c(n1Cc1ccc(-c3ccccc3-c3nn[nH]n3)cc1)C(=O)CCCC2 [Compound 24] |
| 0.501 nM | CCCCc1nc2c(n1Cc1ccc(-c3ccccc3-c3nn[nH]n3)cc1)C(=O)CCCC2 [Compound 18, 5-[2-(4-(2-Butyl-8-oxo-5,6,7,8-tetrahydro-1-cycloheptimidazolyl)methylbiphenylyl)]tetrazole] |
| 7.59 nM | CC(C)c1nc2ccccc(=O)c2n1Cc1ccc(-c2ccccc2-c2nn[nH]n2)cc1 [Compound 9, 5-[2-(4-(2-Isopropyl-8-oxo-1(8H)-cycloheptimidazolyl)methylbiphenylyl)]tetrazole] |
| 0.398 nM | CCCCCc1nc2c(n1Cc1ccc(-c3ccccc3-c3nn[nH]n3)cc1)C(=O)CCCC2 [Compound 19, 5-[2-(4-(2-Pentyl-8-oxo-5,6,7,8-tetrahydro-1-cycloheptimidazolyl)methylbiphenylyl)]tetrazole] |
| 2 nM | CCc1nc2ccccc(=O)c2n1Cc1ccc(-c2ccccc2-c2nn[nH]n2)cc1 [Compound 2, 5-[2-(4-(2-Ethyl-8-oxo-1(8H)-cycloheptimidazolyl)methylbiphenylyl)]tetrazole] |
| 0.331 nM | CCCc1nc2ccccc(=O)c2n1Cc1ccc(-c2ccccc2-c2nn[nH]n2)cc1 [Compound 3, 5-[2-(4-(2-Propyl-8-oxo-1(8H)-cycloheptimidazolyl)methylbiphenylyl)]tetrazole] |
| 9.77 nM | CCCCc1nc2c(n1Cc1ccc(-c3ccccc3-c3nn[nH]n3)cc1)C(O)CCCC2 (centres unmarked) [Compound 26, 5-[2-(4-(2-Butyl-8-hydroxy-1,4,5,6,7,8-hexahydro-1-cycloheptimidazolyl)methylbiphenylyl)]tetrazole] |
| 20 nM | CCCCc1nc2c(n1Cc1ccc(-c3ccccc3-c3nn[nH]n3)cc1)CCCCC2 [Compound 11, 5-[2-(4-(2-Butyl-1,4,5,6,7,8-hexahydro-1-cycloheptimidazolyl)methylbiphenylyl)]tetrazole] |
